The values that follow come from ChEMBL document CHEMBL1909046, “DrugMatrix in vitro pharmacology data”.

One may read the IC50 as the concentration needed to halve the response being measured. In general, Ki refers to a dissociation constant, usually derived from enzyme kinetics or from competition with a known ligand.

The target of data set [1] is Cytochrome P450 3A4 (Homo sapiens, UniProt P08684). The following applies: bti-tn-5b1-4. Note: in other assays of this panel Not Active means under 50% inhibition at 10 µM.
Sequence of Cytochrome P450 3A4 (P08684 whole entry): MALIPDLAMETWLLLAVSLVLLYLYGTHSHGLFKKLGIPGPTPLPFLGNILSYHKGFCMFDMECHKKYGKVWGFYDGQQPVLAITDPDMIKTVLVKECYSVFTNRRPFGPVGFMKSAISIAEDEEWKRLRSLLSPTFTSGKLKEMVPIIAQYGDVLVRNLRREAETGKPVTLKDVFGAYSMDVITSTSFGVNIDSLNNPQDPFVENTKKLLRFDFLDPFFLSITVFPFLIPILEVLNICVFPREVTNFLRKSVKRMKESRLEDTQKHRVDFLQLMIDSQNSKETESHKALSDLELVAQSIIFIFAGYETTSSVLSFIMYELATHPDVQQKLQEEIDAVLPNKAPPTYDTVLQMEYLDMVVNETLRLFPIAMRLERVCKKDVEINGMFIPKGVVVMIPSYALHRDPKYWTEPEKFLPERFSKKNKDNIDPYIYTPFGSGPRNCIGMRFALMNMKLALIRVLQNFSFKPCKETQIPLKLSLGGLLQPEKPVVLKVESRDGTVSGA
The target in data set [2] is T1, Vasoactive intestinal polypeptide receptor 1 (Homo sapiens, UniProt P32241). Note: in other assays of this panel Not Active means under 50% inhibition at 10 µM.
T1 sequence (P32241 whole entry): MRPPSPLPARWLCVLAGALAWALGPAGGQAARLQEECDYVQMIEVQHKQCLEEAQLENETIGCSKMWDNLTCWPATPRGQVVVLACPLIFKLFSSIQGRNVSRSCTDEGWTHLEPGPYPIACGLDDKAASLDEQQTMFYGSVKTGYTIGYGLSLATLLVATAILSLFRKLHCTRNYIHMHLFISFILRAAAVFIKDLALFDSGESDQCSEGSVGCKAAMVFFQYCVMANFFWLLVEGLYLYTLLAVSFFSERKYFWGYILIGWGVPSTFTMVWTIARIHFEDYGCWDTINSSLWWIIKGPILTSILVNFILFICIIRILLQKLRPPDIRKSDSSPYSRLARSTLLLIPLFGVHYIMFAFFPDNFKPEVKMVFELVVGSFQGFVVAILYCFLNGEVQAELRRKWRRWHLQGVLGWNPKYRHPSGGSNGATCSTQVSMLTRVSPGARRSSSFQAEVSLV
The format is cell membranes, Membrane. The following applies: ht-29.

Data set [3] concerns the target Adenosine receptor A2a (Homo sapiens, UniProt P29274). Put plainly: DRUGMATRIX: Adenosine A2A radioligand binding (ligand: […]). It counts as cell membranes, HEK293, Membrane. The following applies: Not Active = under 50% inhibition at 10 µM.
The target in data set [4] is 5-hydroxytryptamine receptor 4 (Cavia porcellus, UniProt O70528). It counts as cell membranes, Dunkin-Hartley, Striatum, Membrane. Note: in other assays of this panel Not Active means under 50% inhibition at 10 µM.
Sequence of 5-hydroxytryptamine receptor 4 (O70528 whole entry): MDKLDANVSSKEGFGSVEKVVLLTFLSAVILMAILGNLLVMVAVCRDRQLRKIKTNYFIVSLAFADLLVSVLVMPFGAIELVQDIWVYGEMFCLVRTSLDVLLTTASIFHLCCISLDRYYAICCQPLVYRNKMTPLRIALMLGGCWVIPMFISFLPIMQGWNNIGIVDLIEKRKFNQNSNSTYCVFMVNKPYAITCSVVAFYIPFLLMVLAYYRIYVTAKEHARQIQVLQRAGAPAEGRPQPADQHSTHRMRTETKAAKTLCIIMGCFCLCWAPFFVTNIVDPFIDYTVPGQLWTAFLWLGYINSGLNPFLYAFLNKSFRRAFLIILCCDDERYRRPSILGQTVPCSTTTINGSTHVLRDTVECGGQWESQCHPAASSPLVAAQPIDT
Data set [5] deals with T2, Muscarinic acetylcholine receptor M5 (Homo sapiens, UniProt P08912).
T2 sequence (P08912 whole entry): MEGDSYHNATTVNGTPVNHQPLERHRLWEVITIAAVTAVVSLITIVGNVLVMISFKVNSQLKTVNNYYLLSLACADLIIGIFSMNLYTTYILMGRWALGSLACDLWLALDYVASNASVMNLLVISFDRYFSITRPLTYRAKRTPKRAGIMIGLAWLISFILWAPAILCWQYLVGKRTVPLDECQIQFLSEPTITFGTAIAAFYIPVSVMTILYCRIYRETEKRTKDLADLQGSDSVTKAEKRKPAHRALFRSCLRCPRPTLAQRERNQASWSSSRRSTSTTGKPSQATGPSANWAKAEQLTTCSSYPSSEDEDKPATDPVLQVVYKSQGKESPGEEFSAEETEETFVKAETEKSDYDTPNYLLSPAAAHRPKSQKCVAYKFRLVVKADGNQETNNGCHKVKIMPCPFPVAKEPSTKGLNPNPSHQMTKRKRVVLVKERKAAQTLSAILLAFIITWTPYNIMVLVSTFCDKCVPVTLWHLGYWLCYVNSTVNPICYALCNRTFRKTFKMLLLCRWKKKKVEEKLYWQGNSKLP
It counts as cell membranes, CHO-K1, Membrane.

Data set [6] concerns the target T3, C-X-C chemokine receptor type 1 (Homo sapiens, UniProt P25024). Note: in other assays of this panel Not Active means under 50% inhibition at 10 µM.
T3 sequence (P25024 whole entry): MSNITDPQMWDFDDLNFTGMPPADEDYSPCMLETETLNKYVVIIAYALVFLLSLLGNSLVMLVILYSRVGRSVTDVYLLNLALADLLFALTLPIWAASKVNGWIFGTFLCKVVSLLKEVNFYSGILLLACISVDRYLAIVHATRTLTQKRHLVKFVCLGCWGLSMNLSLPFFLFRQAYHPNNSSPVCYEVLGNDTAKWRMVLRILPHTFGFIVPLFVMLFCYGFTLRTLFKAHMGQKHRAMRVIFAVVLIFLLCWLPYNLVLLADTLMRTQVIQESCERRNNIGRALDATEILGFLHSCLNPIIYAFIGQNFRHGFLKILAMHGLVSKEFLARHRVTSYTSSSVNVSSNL

The target of data set [7] is Nitric oxide synthase 1 (Rattus norvegicus, UniProt P29476). The format is tissue-based, Cerebellum. Note: in other assays of this panel Not Active means under 50% inhibition at 10 µM.
Sequence of Nitric oxide synthase 1 (P29476 whole entry): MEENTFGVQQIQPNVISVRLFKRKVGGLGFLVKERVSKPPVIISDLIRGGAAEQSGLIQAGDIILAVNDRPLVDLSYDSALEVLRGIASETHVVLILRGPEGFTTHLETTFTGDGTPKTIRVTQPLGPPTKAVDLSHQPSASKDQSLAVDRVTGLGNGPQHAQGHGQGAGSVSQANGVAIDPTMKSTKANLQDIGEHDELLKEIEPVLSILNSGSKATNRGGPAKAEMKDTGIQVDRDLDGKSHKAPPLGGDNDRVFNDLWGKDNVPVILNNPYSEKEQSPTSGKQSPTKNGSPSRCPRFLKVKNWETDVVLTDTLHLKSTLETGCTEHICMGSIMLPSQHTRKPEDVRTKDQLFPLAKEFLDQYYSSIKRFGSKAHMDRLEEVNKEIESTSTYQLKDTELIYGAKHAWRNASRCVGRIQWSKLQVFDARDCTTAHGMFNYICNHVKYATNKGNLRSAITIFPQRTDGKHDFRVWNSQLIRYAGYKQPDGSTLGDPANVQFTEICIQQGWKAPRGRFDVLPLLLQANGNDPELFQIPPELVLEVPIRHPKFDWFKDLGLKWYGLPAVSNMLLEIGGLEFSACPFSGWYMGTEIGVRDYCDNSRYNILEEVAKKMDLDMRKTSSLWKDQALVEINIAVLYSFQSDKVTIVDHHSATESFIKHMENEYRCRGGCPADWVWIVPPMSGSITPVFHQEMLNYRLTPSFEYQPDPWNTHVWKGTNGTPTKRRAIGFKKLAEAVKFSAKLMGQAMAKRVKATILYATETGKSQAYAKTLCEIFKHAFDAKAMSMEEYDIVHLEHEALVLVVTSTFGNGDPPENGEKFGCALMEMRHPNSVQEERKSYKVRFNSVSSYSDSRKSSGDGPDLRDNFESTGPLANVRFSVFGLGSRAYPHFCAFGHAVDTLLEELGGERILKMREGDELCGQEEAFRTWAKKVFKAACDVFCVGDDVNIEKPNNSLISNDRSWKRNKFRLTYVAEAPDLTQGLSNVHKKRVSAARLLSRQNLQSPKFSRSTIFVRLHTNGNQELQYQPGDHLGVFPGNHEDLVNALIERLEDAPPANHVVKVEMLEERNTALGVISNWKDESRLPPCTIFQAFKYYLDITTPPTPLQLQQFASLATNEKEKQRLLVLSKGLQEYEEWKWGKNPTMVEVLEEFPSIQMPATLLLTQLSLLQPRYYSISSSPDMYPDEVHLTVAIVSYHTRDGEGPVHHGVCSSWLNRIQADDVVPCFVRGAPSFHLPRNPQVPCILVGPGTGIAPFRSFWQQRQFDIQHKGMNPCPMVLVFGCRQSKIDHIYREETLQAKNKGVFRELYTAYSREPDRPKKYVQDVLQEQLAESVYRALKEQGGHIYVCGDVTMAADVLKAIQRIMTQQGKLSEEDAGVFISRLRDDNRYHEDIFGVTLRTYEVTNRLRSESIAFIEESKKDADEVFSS

Sequence of Adenosine receptor A2a (P29274 whole entry): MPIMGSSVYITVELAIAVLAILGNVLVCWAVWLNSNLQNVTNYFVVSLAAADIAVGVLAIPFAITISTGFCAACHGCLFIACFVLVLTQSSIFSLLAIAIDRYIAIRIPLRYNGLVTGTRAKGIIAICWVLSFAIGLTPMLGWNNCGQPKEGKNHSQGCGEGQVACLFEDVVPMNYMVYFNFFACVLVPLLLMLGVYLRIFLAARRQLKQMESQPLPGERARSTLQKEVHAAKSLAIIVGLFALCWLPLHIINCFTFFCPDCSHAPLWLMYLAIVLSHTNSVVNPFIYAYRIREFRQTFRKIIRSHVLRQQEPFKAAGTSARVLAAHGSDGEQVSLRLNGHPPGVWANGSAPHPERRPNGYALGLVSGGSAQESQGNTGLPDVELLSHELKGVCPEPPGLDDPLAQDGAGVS

As to `COc1ccccc1N`, the IC50 entry in data set [1], in data set [2], in data set [3] (hek293), in data set [4], in data set [5] (cho-k1) and in data set [6] was “Not Active” throughout. In data set [7], the IC50 entry is given as “Not Active”. In addition, the Ki result in data set [1] is “Not Active”.

Regarding `Cc1c(O)cccc1C(=O)N[C@@H](CSc1ccccc1)[C@H](O)CN1C[C@H]2CCCC[C@H]2C[C@H]1C(=O)NC(C)(C)C`, the IC50 entry is “Not Active” in data set [2]; “Not Active” in data set [3] (hek293); “Not Active” in data set [4]; 86.1 µM in data set [5] (read-out: IC50); “Not Active” in data set [6]; “Not Active” in data set [7]. For the same molecule, in data set [5] (read-out: Ki), the Ki was 61.8 µM.

For the molecule `C[C@H]1O[C@H](O[C@H]2[C@H](O)[C@@H](O)[C@@H](O[C@H]3[C@H](O)[C@@H](O)C(O)O[C@@H]3CO)O[C@@H]2CO)[C@H](O)[C@@H](O)[C@@H]1N[C@H]1C=C(CO)[C@@H](O)[C@H](O)[C@H]1O` (stereo partly drawn) [ACARBOSE], the IC50 entry in data set [1], in data set [2], in data set [3] (hek293), in data set [4], in data set [5] (cho-k1) and in data set [6] was “Not Active” throughout. Moreover, the IC50 entry in data set [7] is given as “Not Active”. Moreover, in data set [1], the Ki result is listed as “Not Active”.

Consider `NC12CC3CC(CC(C3)C1)C2` [AMANTADINE], for which the IC50 entry in data set [2], in data set [3] (hek293), in data set [4], in data set [5] (cho-k1), in data set [6] and in data set [7] was “Not Active” in each case.

As to `CC(C)c1c(C(=O)Nc2ccccc2)c(-c2ccccc2)c(-c2ccc(F)cc2)n1CC[C@@H](O)C[C@@H](O)CC(=O)O` [ATORVASTATIN], the IC50 result in data set [2], in data set [3] (hek293), in data set [4], in data set [5] (cho-k1), in data set [6] and in data set [7] was “Not Active” each time.

For `C[C@H]1[C@H](NC(=O)/C(=N\OC(C)(C)C(=O)O)c2csc(N)n2)C(=O)N1S(=O)(=O)O` [AZTREONAM], the IC50 result in data set [1], in data set [2], in data set [3] (hek293), in data set [4], in data set [5] (cho-k1) and in data set [6] was “Not Active” throughout. Besides, in data set [7], the IC50 result is “Not Active”. In data set [1], the Ki result is recorded as “Not Active”.

For `COc1cc(OC)c(C(=O)CCCN2CCCC2)c(OC)c1` [BUFLOMEDIL], the IC50 result in data set [2], in data set [3] (hek293), in data set [4], in data set [5] (cho-k1), in data set [6] and in data set [7] was “Not Active” throughout.

With `Cn1c(=O)c2c(ncn2C)n(C)c1=O` [CAFFEINE], the IC50 entry in data set [1], in data set [2], in data set [4], in data set [5] (cho-k1), in data set [6] and in data set [7] was “Not Active” throughout. The inhibitory constant (Ki) entry in data set [1] was “Not Active”.

On to `CO/N=C(\C(=O)N[C@@H]1C(=O)N2C(C(=O)O)=C(COC(C)=O)CS[C@H]12)c1csc(N)n1` [CEFOTAXIME], for which the IC50 result in data set [1], in data set [2], in data set [3] (hek293), in data set [4], in data set [5] (cho-k1) and in data set [6] was “Not Active” in each case. The IC50 entry in data set [7] is on record as “Not Active”. The Ki entry in data set [1] is on record as “Not Active”.

In the case of `Cc1cc(O)cc(C)c1Cl` [CHLOROXYLENOL], the IC50 entry in data set [1], in data set [2], in data set [3] (hek293), in data set [4], in data set [5] (cho-k1) and in data set [6] was “Not Active” throughout. In addition, in data set [7], the IC50 entry is “Not Active”. The Ki entry in data set [1] is “Not Active”.

With `NS(=O)(=O)c1cc(C2(O)NC(=O)c3ccccc32)ccc1Cl` (stereo not drawn) [CHLORTHALIDONE], the IC50 entry in data set [1], in data set [2], in data set [3] (hek293), in data set [4], in data set [5] (cho-k1) and in data set [6] was “Not Active” each time. Moreover, the IC50 entry in data set [7] is recorded as “Not Active”. The inhibition constant Ki entry in data set [1] is listed as “Not Active”.

As for `COc1cccc2c1C(=O)c1c(O)c3c(c(O)c1C2=O)C[C@@](O)(C(C)=O)C[C@@H]3O[C@H]1C[C@H](N)[C@H](O)[C@H](C)O1` [DAUNORUBICIN], the IC50 entry in data set [1], in data set [2], in data set [3] (hek293), in data set [4], in data set [5] (cho-k1) and in data set [6] was “Not Active” each time. The IC50 entry in data set [7] is “Not Active”. For the same molecule, the Ki result in data set [1] is recorded as “Not Active”.

On to `C[S+](C)[O-]` [DIMETHYL SULFOXIDE], for which the IC50 entry in data set [1], in data set [2], in data set [3] (hek293), in data set [4], in data set [5] (cho-k1) and in data set [6] was “Not Active” throughout. For the same molecule, in data set [7], the IC50 result is “Not Active”. In addition, the Ki result in data set [1] is “Not Active”.

With `C[C@]12CC[C@@H]3c4ccc(O)cc4CC[C@H]3[C@@H]1C[C@@H](O)[C@@H]2O` [ESTRIOL], the IC50 entry in data set [1], in data set [2], in data set [3] (hek293), in data set [4], in data set [5] (cho-k1) and in data set [6] was “Not Active” throughout. Also, the IC50 entry in data set [7] is “Not Active”. Moreover, in data set [1], the Ki entry is given as “Not Active”.

Take `C#C[C@]1(O)CC[C@H]2[C@@H]3CCC4=CC(=O)CC[C@]4(C)[C@H]3CC[C@@]21C` [ETHISTERONE]: the IC50 entry in data set [1], in data set [2], in data set [3] (hek293), in data set [4], in data set [5] (cho-k1) and in data set [6] was “Not Active” each time. Besides, in data set [7], the IC50 result is reported as “Not Active”. For the same molecule, in data set [1], the Ki result was “Not Active”.

With `CC(O)(P(=O)(O)O)P(=O)(O)O` [ETIDRONIC ACID], the IC50 entry in data set [1], in data set [2], in data set [3] (hek293), in data set [4], in data set [5] (cho-k1) and in data set [6] was “Not Active” throughout. Besides, the IC50 result in data set [7] is “Not Active”. The Ki entry in data set [1] is listed as “Not Active”.

Turning to `O=C(O)P(=O)(O)O` [FOSCARNET], the IC50 entry in data set [1], in data set [2], in data set [3] (hek293), in data set [4], in data set [5] (cho-k1) and in data set [6] was “Not Active” each time. Also, the concentration for half-maximal inhibition (IC50) result in data set [7] is recorded as “Not Active”. In data set [1], the Ki result was “Not Active”.

Consider `O=c1c(-c2ccc(O)cc2)coc2cc(O)cc(O)c12` [GENISTEIN], for which the IC50 entry in data set [1] was “Not Active”; in data set [2], “Not Active”; in data set [3] (read-out: IC50), 17.4 µM; in data set [4], “Not Active”; in data set [5] (cho-k1) it was “Not Active”; in data set [6], “Not Active”. The IC50 result in data set [7] was “Not Active”. Further, the Ki entry in data set [1] was “Not Active”; in data set [3] (read-out: Ki), 9.79 µM.

As for `C[C@H]1COc2c(N3CCN(C)CC3)c(F)cc3c(=O)c(C(=O)O)cn1c23.C[C@H]1COc2c(N3CCN(C)CC3)c(F)cc3c(=O)c(C(=O)O)cn1c23.O` [LEVOFLOXACIN], the IC50 result in data set [2], in data set [3] (hek293), in data set [4], in data set [5] (cho-k1), in data set [6] and in data set [7] was “Not Active” in each case.
